The values below come from patent publication US6812246B2, “Aminoflavone compounds, compositions, and methods of use thereof” (The United States of America as represented by the …, priority 2000, dated 2004).

Structures are written as SMILES. Converted amounts (≈) assume the structure as drawn. Where two headings read alike, the source gives them in different places.

Data set [1] can be described thus: Visual solubility evaluation in buffer at fixed concentration of 5 mg/mL. It counts as physicochemical. As to conditions: for solubility: aqueous buffer, water solubility determined visually at fixed concentration of 5 mg/mL. The method, then:
This Example illustrates the desirable solubility characteristics of the aminoflavone compounds of the present invention. In Table 2 below, the water solubility of compounds 1a-d of Table 1 are set forth at different pH with a citrate or phosphate buffer, as indicated. Solubility was determined visually at a fixed concentration of 5 mg/mL.

For data set [2] the following is noted: Akama et al., cited from earlier work.
Data set [3] has as its system panel of 60 different human tumor cell lines. The experiment in a line: NCI 60 cell-line human tumor screen (sulforhodamine B, 48 hour incubation). It counts as cell-based. As to conditions: FIG. 1B; several human cancer cell lines, particularly breast (MCF7), ovarian (OVCAR-5), renal (CAKI-1), colon (SW-620). The method, then:
The NCI screen consists of a panel of 60 different human tumor cell lines against which compounds are tested over a defined range of concentrations to determine the relative degree of growth inhibition or cytotoxicity against each cell line. The design and operation of the screen is such that for each compound tested, both the absolute and relative sensitivities of individual cell lines comprising the screen are sufficiently reproducible that a characteristic profile or “fingerprint” of cellular response is generated. Compounds that are active in the NCI screen show pronounced differential tumor growth-inhibitory and/or cytotoxic effects to the diverse cell lines comprising the 60 cell-line panel. The degree of differential response between the most and least sensitive lines typically may be relatively small (e.g., 2-10 fold), or occasionally as great as 3-4 orders of magnitude. […]
In the screening assay, each agent is tested over a broad concentration range against every cell line in the panel. […] Test compounds are evaluated at five 10-fold dilutions. […] Optical densities are measured on automated plate readers, followed by computerized data acquisition, processing, storage, and availability for display-and analysis. […]

Where [4] appears, read: pH 3, citrate buffer, read-out: Visual solubility, pH 3.
Setting [5] is: pH 5, citrate buffer, read-out: Visual solubility, pH 5.
[6] abbreviates: pH 7, phosphate buffer, read-out: Visual solubility, pH 7.
[7] abbreviates: pH 3, citrate buffer, 5 mg/mL, visual.

As a reminder, the solubility is the dissolved amount per volume that the medium holds. For the compound `Br.Br.Br.Cc1c(F)c(N)c2c(=O)cc(-c3ccc(NC(=O)C(N)CCCNC(=N)N)c(F)c3)oc2c1F` (stereo not shown) [Compound 1b, 5-amino-2-[4-[[2-amino-5-guanidinopentanoyl]amino]-3-fluorophenyl]-6,8-difluoro-7-methyl-4H-1-benzopyran-4-one, trihydrobromide], the results for the solubility in data set [1] (setting [4]), in data set [1] (setting [5]) and in data set [1] (setting [6]) were over 5000 µg/mL, under 5000 µg/mL and under 5000 µg/mL, respectively. Besides, in data set [1] (setting [7]), the “solubility at pH 3 (text summary of Table 2)” value is reported as “fully soluble”.

With `Cc1c(F)c(NC(=O)CN(C)C)c2c(=O)cc(-c3ccc(NC(=O)CN(C)C)c(F)c3)oc2c1F` [Compound 1d, 6,8-difluoro-7-methyl-5-(dimethylamino)acetamido-2-[4-(dimethylamino)acetamido-3-fluorophenyl]-4H-1-benzopyran-4-one], the solubility is over 5000 µg/mL in data set [1] (setting [4]), over 5000 µg/mL in data set [1] (setting [5]) and under 5000 µg/mL in data set [1] (setting [6]). In addition, the “solubility at pH 3 (text summary of Table 2)” value in data set [1] (setting [7]) is “fully soluble”. In data set [1] (pH 5, citrate buffer, 5 mg/mL, visual), the “solubility at pH 5 (text summary of Table 2)” value was “fully soluble”.

Turning to `Cc1c(F)c(N)c2c(=O)cc(-c3ccc(NC(=O)CN(C)C)c(F)c3)oc2c1F` [Compound 1c, 5-amino-6,8-difluoro-7-methyl-2-[4-(dimethylamino)acetamido-3-fluorophenyl]-4H-1-benzopyran-4-one], the solubility in data set [1] (setting [4]), in data set [1] (setting [5]) and in data set [1] (setting [6]) was under 5000 µg/mL each time.

In the case of `Nc1ccc(-c2cc(=O)c3c(N)c(F)cc(F)c3o2)cc1F` [5,4′-diamino-6,8,3′-trifluoroflavone], the solubility in ethanol in data set [2] (ethanol, J. Med. Chem., at 2067) was 1200 µg/mL (≈ 3.92 mM). The solubility in water entry in data set [2] (water, J. Med. Chem., 41, 2056-2067 (1998)) is reported as “less than 0.2 μg/mL”.

On to `Cc1c(F)c(N)c2c(=O)cc(-c3ccc(NC(=O)[C@@H](N)CCCCN)c(F)c3)oc2c1F` [Compound 1a, 5-amino-6,8-difluoro-2-(3-fluoro-4-[(L-lysyl)amino]phenyl]-7-methyl-4H-1-benzopyran-4-one], for which, in data set [3], the “tumor growth-inhibiting activity (GI50 mean-graph)” value was “demonstrated tumor growth-inhibiting activity”. For the same compound, the figures for the solubility in data set [1] (setting [4]), in data set [1] (setting [5]) and in data set [1] (setting [6]) were over 5000 µg/mL, under 5000 µg/mL and under 5000 µg/mL, respectively. Also, in data set [1] (setting [7]), the “solubility at pH 3 (text summary of Table 2)” value is given as “fully soluble”.
